Source: patent US8614203B2, “Methods for the treatment of a central nervous system injury via a tapered administration protocol” (Emory University, priority 2005, dated 2013)

Experiments:
Format in all cases: in vivo, Sprague-Dawley rats
[1] = tested on: bilateral contusions of the medial prefrontal cortex; experiment: Example 1: necrotic cavity, lateral ventricle and striatal area measurements after TBI (Nissl/thionine histology); conditions: 4 mg/kg in peanut oil, 21 days after surgery
Method: Male Sprague-Dawley rats (300 g) were housed individually in wire cages and kept on a reverse light-dark cycle (0800-2000 h). […] All procedures involving animals conformed to guidelines set forth in the Guide for the Care and Use of Laboratory Animals (U.S. Department of Health and Human Services, Pub no. 85-23, 1985) and were approved by the Emory University Institutional Animal Care and Use Committee.
Bilateral contusions of the medial prefrontal cortex were created by a pneumatic impactor device as previously described. Briefly, rats were given anesthetized with ketamine/xylazine (90 mg/kg; 10 mg/kg) and placed in a stereotaxic apparatus. A craniectomy (diameter 6 mm) was made over the midline of the prefrontal cortex with its center 1.5 mm AP to bregma. After removal of the bone, the tip of the impactor (diameter 5 mm) was moved to +3.0 mm AP; 1.0 mm ML (from bregma), and checked for adequate clearance. Trauma was produced by pneumatically activating the piston to impact −2.0 mm DV (from dura) at a velocity of 3 m/s with a brain contact time of 0.5 seconds.
Control animals received injections of vehicle at similar time-points. Animals were coded with regard to surgery and treatment to prevent experimenter bias during behavioral testing and histological examination.
Twenty-one days after surgery, animals were perfused with 100 ml 0.1 M phosphate-buffered saline (PBS; pH 7.4) followed by 400 ml 4% paraformaldehyde in 0.1 M phosphate buffer (PB; pH 7.4). Following cryoprotection in 30% sucrose, coronal 40-μm-thick sections were cut on a freezing microtome, immediately mounted on gel-coated slides and stained for Nissl with thionine to determine placement and extent of the injury.
Mean area measurements of lesion size were quantified from sections at 15 rostral-caudal levels spaced 300 μm apart. […] Perimeters of the striatum and the lateral ventricles were also traced and mean areas were quantified from 7 rostral-caudal levels (300 μm apart).
Experienced individuals who were blind to treatment conditions of the study conducted all histological and behavioral analyses. All data were tested for normality and homoschedasticity before being analyzed by parametric analysis of variance (ANOVA). MWM results were analyzed using separate mixed-factorial (4 groups×5 days) analysis of variance (ANOVA) on each of the two 5-day testing periods (acquisition and retention respectively). Results of the BSN task were analyzed using the mixed-factorial ANOVA (4 groups×2 post-injury trials). […] Pearson r coefficients were calculated to determine whether significant correlations could be detected between histological (e.g., lesion size and cellular density) and behavioral parameters (e.g., acquisition and retention of the MWM task and measures of sensory neglect).

[2] = tested on: medial frontal cortex (MFC) injury or sham; experiment: Example 4: somatosensory neglect of the forepaws
Source text: 60 male Sprague-Dawley rats weighing 290-310 g at the time of injury were used in this experiment. Food and water were provided ad libidum before and after surgery. Animals were handled and weighed daily from their arrival, seven days pre-surgery, to brain extraction three weeks post-surgery. Animals were handled in squads of 12, with n=10 per experimental condition. All animal procedures were approved by the Emory University Animal Care and Use Committee, Protocol #131-2002.
Isofluorane anesthesia was induced for four minutes and 45 seconds at 5% and maintained at 2.5%. Normal body temperature was maintained with a surgical heating pad placed beneath the sterile dressings. The scalp incision area was shaved and sterilized with iodine and isopropanol. A midline incision was made along the scalp and the fascia cleared to expose the surface of the skull. Medial, lateral, and dorsal stereotaxic coordinates were determined at bregma, and a 5-7 mm diameter bilateral craniotomy was performed mid-sagitally, 3 mm anterior to bregma. […] Sutures were used to close the incision after bleeding ceased. Animals were placed in individual heated, clean recovery cages until they awakened, and were returned to clean individual home cages with accessible moistened food pellets. Sham animals were anesthetized, and an incision was made at the top of the head. The fascia was cleared to expose bregma, then the incision was sutured closed. Sham surgeries were matched to lesion surgeries for all experimental conditions.
Sham (S) and lesion (L) animals were randomly assigned to one of three treatment groups: vehicle (VS, VL), acute withdrawal (AWS, AWL), and tapered withdrawal (TWS, TWL). […] Tapering was induced as halved dosages over the last two days of treatment. Dilutions for TW treatments were made with HBC stock. All injections were administered intraperitoneally at one hour post-injury, and subcutaneously at six hours post-injury and every 24 hours through the end of the treatment cycle. Five sets of 12 animals each were used, for a total n=10 for each experimental group over the entire experiment. Of these animals, all were used to acquire behavioral data, four samples were used for protein analysis, and six samples were used for histological analysis for each test condition.
Random order, blinded testing occurred under red light in a quiet environment at one and seven days post-withdrawal, one hour after locomoter activity testing. 1.3 cm diameter circular labels were placed on the left forepaw and the rat placed in the clear plexiglass testing box. The latency required for each rat to remove the sticker with its mouth was recorded, with maximum test duration of two minutes. Each animal was tested three times, with a rest period of two minutes between trials. The testing box was cleaned with 70% ethanol and dried between trials.
All results were expressed as the mean plus or minus the standard error of the mean. Statistical significance was set at p<0.05 for two-tailed tests, and data were analyzed using one-way analysis of variance (ANOVA) followed by LSD post hoc tests. F-values are presented as a preface to post-hoc analysis with all degrees of freedom for Western blotting at (5,18) and for behavior at (5,26).

BDNF = experiment: Example 3: Western blot of brain tissue, BDNF; conditions: TWI vs AWI vs VI, 3 weeks post-injury
Method: Male Sprague-Dawley rats received either medial frontal cortex injury or sham surgery. Injections were given 1 and 6 hours post-injury, and every 24 hours for 7 days. Treatment groups (n=8) encompassed injured (I) and sham (S) acute withdrawal (AW), tapered withdrawal (TW) and vehicle (V) treatments. TW injections were progressively halved over the final two treatments. Behavioral testing was conducted post-surgery, mid- and post-withdrawal. Activity boxes were used to investigate vertical movements and exploration: Sensory neglect and anxiety behaviors were also analyzed. Brain harvesting was performed at 8 days or 3 weeks post-injury. Perfused tissue sections were analyzed for lesion volume and immunohistochemical response. Fresh brain tissue was flash frozen in chilled 2-methyl butane, and then homogenized for Western blot analysis.

SMILES: CC(=O)[C@H]1CC[C@H]2[C@@H]3CCC4=CC(=O)CC[C@]4(C)[C@H]3CC[C@]12C [progesterone, pregn-4-ene-3,20-dione]
- enlargement of the lateral ventricles ([1]; 3 or 5 days): did not have any effect on this measure
- mean striatal area ([1]; 3 or 5 days): No between-group differences
- necrotic cavity size ([1]; 3 days (LP3), vs injured animals): tended to be smaller than in the brains of injured animals
- necrotic cavity formation ([1]; 5 days (LP5), vs vehicle-injected injured animals): significant reductions in overall necrotic cavity formation
- somatosensory neglect (latency to remove sticker) ([2]; 16 mg/kg in […] HBC, tapered withdrawal, lesion (TWL), one day and one week post-withdrawal): deficiencies were decreased compared to VL and AWL
- somatosensory neglect (latency to remove sticker) ([2]; 16 mg/kg, acute withdrawal, lesion (AWL), one day and one week post-withdrawal): AWL and VL did not display differences
- somatosensory neglect (latency to remove sticker) ([2]; 16 mg/kg, acute withdrawal, sham (AWS), one day post-withdrawal): elevated sensory deficiencies compared to the TWS and VS groups
- somatosensory neglect (latency to remove sticker) ([2]; 16 mg/kg, acute withdrawal, sham (AWS), one week post-withdrawal): these differences were no longer evident
- somatosensory neglect (latency to remove sticker) ([2]; tapered withdrawal, sham (TWS), one day and one week post-withdrawal): TWS and VS showed no differences
- BDNF expression (BDNF): increased for TWI over AWI over VI at 3 weeks post-injury
